Usually MIC stands for the lowest concentration that inhibits growth of the organism.

The test system of this assay is E. coli strains (e.g. BL21 or DH10beta). The assay can be described thus: Growth of E. coli on LB medium with varying antibiotic concentrations (MIC), liquid and agar plates. The format is cell-based. As to conditions: for Antibiotic concentration to which resistance is conferred: E. coli transformed with isolated mutated GPR55 clones; for MIC: Escherichia coli. As to the method: The construct library containing modified genes is then used to transform E. coli strains (e.g. BL21 or DH10beta). Growth is tested on LB medium with varying concentrations of kanamycin (MIC for untransformed cells is approximately 10 mg/L), both in liquid and agar plates.

The mark [1] stands for this setting: E. coli containing a plasmid encoding wild type human GPR55.
[2] abbreviates: read-out: Apparent MIC, E. coli expressing certain constructs containing wild type rat NTSR1 (aa 43-424).

Molecules are shown by their SMILES. In brackets after ≈: the same amount, converted by molar mass. Like-named read-outs stand apart in the source and are kept apart here.

As for `CC1(C)S[C@@H]2[C@H](NC(=O)C(C(=O)O)c3ccccc3)C(=O)N2[C@H]1C(=O)O` (stereo partly shown) [carbenicillin], the “Antibiotic concentration to which resistance is conferred” value is recorded as above 80 mg/L. This compound also registered a minimum inhibitory concentration (MIC) under setting [1] of around 40 µg/mL (≈ 106 µM). For the same compound, under setting [2], the MIC was above 75 µg/mL.

On to `NC[C@H]1O[C@H](O[C@H]2[C@H](O)[C@@H](O[C@H]3O[C@H](CO)[C@@H](O)[C@H](N)[C@H]3O)[C@H](N)C[C@@H]2N)[C@H](O)[C@@H](O)[C@@H]1O` [kanamycin], for which the “Antibiotic concentration to which resistance is conferred” value is above 50 mg/L. The compound further yielded an MIC under setting [1] of around 25 µg/mL (≈ 51.6 µM). Besides, the minimal inhibitory concentration (MIC) under setting [2] is above 50 µg/mL. The MIC (untransformed E. coli cells, LB medium) was around 10 µg/mL (≈ 20.6 µM).

The values are drawn from patent US12351628B2, “Modified membrane spanning proteins and methods for the preparation and use thereof” (priority 2014, dated 2025).
